Experimental data: US7745493B2, “Methods of treating tardive dyskinesia and other movement disorders” (priority 1998, dated 2010)
Marks after values point to notes of the source that are not given here.

Tests used:
[1] = test system: person two with long-standing TD; assay: Digit Symbol (Case 1); format: in vivo, human; settings: ON drug, higher score better
Source text: (§1) The following tables report on the results of the neuropsychological tests (Drug I is memantine and Drug II is acamprosate): […]

[2] = test system: person two with long-standing TD; assay: Figural Fluency (Case 1); format: in vivo, human; settings: ON drug
Source text: as §1

[3] = test system: person one with long-standing TD; assay: Case Report 2: clinical observation of TD; format: in vivo, human; settings: Case 2; for effect on involuntary movements of TD: acamprosate 666 mg three times daily added to memantine, magnesium oxide 250 mg three times a day added to acamprosate; for cognitive symptoms / memory: subjective
Source text: person one had long-standing TD following decades of treatment with the neuroleptic drug perphenazine. Their involuntary movements comprised bilateral chorea of the upper extremities, plus writhing of the tongue and tongue-biting. Both of the latter movements led to a very sore tongue. In addition, the patient experienced impairment of their short-term memory, which was attributed primarily to cerebrovascular disease.
They also continued to have a sore tongue. […] In addition to memantine, the patient regularly took antiepileptic drugs (gabapentin and lamotrigine), antiplatelet agents (aspirin and ticlopidine), as well as medications for hypertension, glaucoma and gastrointestinal symptoms (isosorbide mononitrate, metoprolol, timolol eye drops and olsalazine).
(§2) The patient was placed on a treatment regime that included administration of 666 mg of acamprosate, three times daily. In this case, acamprosate was added to the patient's regimen, which continued to include memantine. […] Despite past evidence from formal testing that the patient had impaired short-term memory, they performed normally on a two-sentence memory task, which involved testing the patient's recall ability using two sentences containing 13 separate details. On the two-sentence memory task, within three attempts the patient was able to recall 9 details and, using a multiple choice format, was able to recall a total of 11 details. Recall of 9 details on the third attempt would be normal for a middle-aged adult, let alone one […].
After a full year on memantine and acamprosate, the memantine was discontinued, with little change in the patient's symptoms.
Magnesium oxide, 250 mg three times a day, was added, each dose being taken together with the acamprosate. […] The effect was definite: movements worsened when magnesium oxide was stopped and improved when it was restarted. After a month on magnesium, the dosage of acamprosate was increased to 666 mg four times a day, with 250 mg of magnesium oxide given together with each dose. […] The only residual sign of TD was a mild degree of involuntary movement of the hands.

[4] = test system: person two with long-standing TD; assay: Rey-Osterrieth Complex Figure (Case 1); format: in vivo, human; settings: ON drug, higher score better
Source text: as §1

[5] = test system: person two with long-standing TD; assay: Verbal Fluency (Case 1); format: in vivo, human; settings: ON drug
Source text: as §1

[6] = test system: person two with long-standing TD; assay: California Verbal Learning Test 16-items (Case 1); format: in vivo, human; settings: ON drug
Source text: as §1

[7] = test system: person with simple tic of the neck; assay: Case Report 5: frequency of simple tic of the neck; format: in vivo, human; settings: Case 5
Method: A person had simple tic of the neck that involved forceful extension and rotation of the neck to the right. The tic had started in the context of therapy of depression with dextroamphetamine and pramipexole, a dopamine agonist drug. The tic occurred from 20-50 times per hour, with greater frequency when they were tired or under stress.
They were initially treated with 666 mg of acamprosate three times a day. Within 24 hours after the start of acamprosate therapy, the frequency and severity of the tic decreased dramatically, to a rate of less than 5 per hour. The patient often was free of tics completely for 2 to 3 hours after each dose of acamprosate, after which time the tic would very gradually return. The dose was then raised to 666 mg four times a day. On this dose, rates of more than 5 per hour occurred only under unusually stressful circumstances, and there were frequent tic-free periods of 4 hours or more. […] On a second day without acamprosate, the rate of tics was again over 20 per hour.
[…] then added chelated magnesium, at a dosage of 300 mg of elemental magnesium 3 times a day. With magnesium supplementation, the average tic frequency dropped to 6 hour or less. When 666 mg of acamprosate was given three times a day was given together with magnesium 300 mg three times a day, the usual tic-free period after each acamprosate dose increased from approximately 3 hours to approximately 5 hours.

[8] = test system: person two with long-standing TD; assay: CPT with conditions (Vigilance) (Case 1); format: in vivo, human; settings: ON drug
Source text: as §1

[9] = test system: person two with long-standing TD; assay: Rey Auditory-Verbal Learning Test 15-items (Case 1); format: in vivo, human; settings: ON drug
Method: On acamprosate, the patient was able to sustain concentration for prolonged periods. […] The patient's cognitive improvement was also assessed using formal neuropsychological measures. The patient was tested while on the drug, then taken off of the drug and tested two days later. On the drug, the patient was able to recall 13 of the 15 items after a short delay as well as 13 of the 15 items after a long delay, as measured by the Rey Auditory Verbal Learning Test. This was in comparison to the patient's ability while off the drug to recall only 7 of the 15 items after a short delay as well as 8 of the items after a long delay in tests performed. In addition, the patient was able to recognize all 15 of the items while on acamprosate but while off the drug (and while having been off of memantine for over 2 months) the patient could only recognize 10 of the items. The order of testing would give the advantage of familiarity to the off-drug condition. Nonetheless, the difference in favor of the on-drug condition was substantial.
as §1

3,338 patients = settings: alcoholism treatment; cited from earlier work
[10] = in vivo; cited from earlier work
[11] = test system: person one with long-standing TD; assay: Case Report 2: two-sentence memory task; format: in vivo, human; settings: Case 2; on acamprosate 666 mg three times daily plus memantine
Method: as §2

[12] = of 15 items, higher score better

SMILES: CC12CC3CC(C)(C1)CC(N)(C3)C2 [memantine]
- Digit Symbol [1]: 34
- Figural Fluency Unique Designs ([2]; higher score better): 124
- Figural Fluency Perseverations ([2]; lower score better): 8
- effect on involuntary movements of TD [3]: improved, but continued at a mild-to-moderate level
- cognitive symptoms / memory [3]: did not improve
- Rey-Osterrieth Complex Figure Copy Organization [4]: 5
- Rey-Osterrieth Complex Figure Copy Presence & Accuracy [4]: 20
- Rey-Osterrieth Complex Figure Delayed Retention [4]: −11.1
- Rey-Osterrieth Complex Figure Immediate Retention [4]: −55
- Verbal Fluency Category (Animals) Per [5]: Per = 0^b
- Verbal Fluency Letter (CFL) Per [5]: Per = 2^b
- Verbal Fluency Category (Animals) Total ([5]; higher score better): Total = 25
- Verbal Fluency Letter (CFL) Total ([5]; higher score better): Total = 70
- CVLT List A 1-5 total (80 max) ([6]; higher score better): 53
- CVLT List A Trial 1 ([6]; higher score better): 7
- CVLT List A Trial 5 ([6]; higher score better): 13
- CVLT List B ([6]; higher score better): 7
- CVLT Long-Delay Cued Recall ([6]; higher score better): 15
- CVLT Long-Delay Free Recall ([6]; higher score better): 12
- CVLT Recognition Hits ([6]; higher score better): 16
- CVLT Short-Delay Cued Recall ([6]; higher score better): 13
- CVLT Short-Delay Free Recall ([6]; higher score better): 10
- CVLT False Positives ([6]; lower score better): 3
- CVLT Intrusions ([6]; lower score better): 6
- CVLT Perseverations ([6]; lower score better): 23

SMILES: CC(=O)NCCCS(=O)(=O)O [acamprosate, calcium N-acetylhomotaurinate]
- tic-free periods ([7]; 666 mg four times a day): ≥ 4 h
- tic rate ([7]; 666 mg three times a day): less than 5 per hour
- time to decrease of tic frequency and severity ([7]; after start of therapy): ≤ 24 h
- CPT Correct ([8]; higher score better): 100/100
- CPT Commission errors ([8]; lower score better): 0
- CPT Omission errors ([8]; lower score better): 0
- CPT Wrong ([8]; lower score better): 3
- persistent symptoms on acamprosate after memantine discontinued ([3]; 666 mg three times a day): mild choreatic movements on the hands, mild involuntary movements of the tongue and jaw
- effect on involuntary movements of TD [3]: chorea and tongue-biting stopped completely
- cognitive symptoms / memory [3]: memory improved
- RAVLT List A Trial 1 ([9]; higher score better): 10
- RAVLT List A Trial 5 ([9]; higher score better): 14
- RAVLT List B ([9]; higher score better): 8
- Rey Auditory Verbal Learning Test List A 1-5 total (75 max) ([9]; higher score better): 63
- RAVLT False Positive ([9]; lower score better): 1
- RAVLT Intrusions ([9]; lower score better): 0
- RAVLT Perseverations ([9]; lower score better): 5
- RAVLT Long-Delay Free Recall [9, 12]: 13
- RAVLT Recognition Hits [9, 12]: 15
- RAVLT Short-Delay Free Recall [9, 12]: 13
- side effects in controlled trials (3,338 patients): no severe medical or neurological side effects
- absorption from the GI tract [10]: irregularly absorbed
- details recalled within three attempts (of 13 details) [11]: 9
- total details recalled using multiple choice format (of 13 details) [11]: 11
